Experimental data published in patent publication US20240423948A1, “5-HYDROXYMETHYLFURFURAL FOR THE TREATMENT OF MITOCHONDRIAL DYSFUNCTION” (D-CAP LLC, priority 2021, published 2024).

How the values were obtained:
Assay type in all cases: cell-based, murine
Hepa1-6 cell line [1] = experiment: Mitochondrial reactive oxygen species (MitoSOX Red); settings: for MitoSOX levels: 24 h
Protocol: Cell culture: The Hepa1-6 cell line (#CRL-1830, ATCC) was cultured in DMEM culture medium containing 1 g/L glucose, 10% fetal bovine serum, 2 mM glutamine, 100 U/mL Penicillin and 100 μg/mL Streptomycin and 30 μM oleic acid. Cells were seeded at a density of 20 000 cells per well in 96 well plates and incubated for overnight to allow the cells to attach at 37° C. with 5% CO2. Cells were then supplemented with the test substances at indicated concentrations and incubated for indicated time periods (24 h). For all assays the test substances were diluted in 10% DMSO/PBS further diluted with culture medium and added to the cells at the indicated concentrations with a final DMSO concentration of 0.01%. Vehicle controls were treated with 0.01% DMSO. Mitochondrial reactive oxygen species (ROS); Cells were treated for 24 h with the test substances at the indicated concentration, as well as positive (10 μM FCCP and 1 μM oligomycin) and negative control. Mitochondrial ROS was detected using MitoSOX™ Red mitochondrial superoxide indicator (#M36008, Invitrogen/Thermo Fisher Scientific). After 24 h treatment of the substances, cells were washed with 100 μl assay buffer (DMEM without phenol red with 4 mM L-glutamine, 4.5 g/L glucose and 1 mM Na-Pyruvate, pH7.4) three times, and 100 μl of […] MitoSOX Red (5 mM MitoSOX™ Red stock solution prepared as indicated by the manufacturer's instruction diluted in 1:2 500 in assay buffer) was added per well, followed by incubation for 30min at 37° C. with 5% CO2. After the incubation cells were washed with 100 μl assay buffer and 100 μl assay buffer was added per well. Fluorescence was measured at excitation 510 nm and emission 580 nm. Use flat, black bottom plates were used.

Hepa1-6 cell line [2] = experiment: ATP content (CellTiter-Glo Assay); settings: for ATP levels: single agent, 24 h, lower (0.1-100 μM) and higher dose range, FIG. 1A and 1D
Protocol: Cell culture: The Hepa1-6 cell line (#CRL-1830, ATCC) was cultured in DMEM culture medium containing 1 g/L glucose, 10% fetal bovine serum, 2 mM glutamine, 100 U/mL Penicillin and 100 μg/mL Streptomycin and 30 μM oleic acid. Cells were seeded at a density of 20 000 cells per well in 96 well plates and incubated for overnight to allow the cells to attach at 37° C. with 5% CO2. Cells were then supplemented with the test substances at indicated concentrations and incubated for indicated time periods (24 h). For all assays the test substances were diluted in 10% DMSO/PBS further diluted with culture medium and added to the cells at the indicated concentrations with a final DMSO concentration of 0.01%. Vehicle controls were treated with 0.01% DMSO. ATP content: Cells were treated for 24 h with the test substances at the indicated concentrations. The cellular ATP content was assessed using the CellTiter-Glo Assay (#G7571, Promega) as per the manufacturer's instructions. Luminescence was detected in a plate reader spectrophotometer. The results were normalized to the luminescence intensity measured in vehicle treated cells and positive controls treated with 0.1% Triton-X, as well as 10 μM FCCP and 1 μM oligomycin. Flat, white bottom plate.

Hepa1-6 cell line [3] = experiment: Cytotoxicity (CyQuant LDH Cytotoxicity Assay); settings: single agent, 24 h, lower and higher dose range, FIG. 1C and 1F
Protocol: Cells were seeded at a density of 20 000 cells per well in 96 well plates and incubated for overnight to allow the cells to attach at 37° C. with 5% CO2. Cells were then supplemented with the test substances at indicated concentrations and incubated for indicated time periods (24 h). For all assays the test substances were diluted in 10% DMSO/PBS further diluted with culture medium and added to the cells at the indicated concentrations with a final DMSO concentration of 0.01%. Vehicle controls were treated with 0.01% DMSO. Cytotoxicity: Cytotoxicity was assessed using the CyQuant™ LDH Cytotoxicity Assay Kit (#C20300/C20301, Thermo Fisher). After cells were cultured with the test substances for 24 h, 50 μL of the cell culture medium were transferred to a new 96 well plate and the cytotoxicity assay was performed as per the manufacturer's instructions. Absorbance was measured at 490 nm and background at 680 nm. The signal intensity of untreated cells was considered as the background signal of spontaneous LDH release and subtracted from all measurements. Cytotoxicity was expressed as the percentage of maximum signal intensity observed in freshly lysed cells. Flat, clear plate. 10 μM FCCP, 1 μM oligomycin, 0.1% Triton X as positive control.

[4] = single agent, lower and higher dose range, FIG. 1B and 1E

Row | SMILES | MitoSOX levels (Hepa1-6 cell line [1]; positive control, 1 μM oligomycin) | MitoSOX levels (Hepa1-6 cell line [1]; [4]) | ATP levels (Hepa1-6 cell line [2]) | cytotoxicity (LDH) (Hepa1-6 cell line [3]) | effect on mitochondrial function (mitochondrial ROS levels) compared with metformin (Hepa1-6 cell line [1]; FIG. 1 legend, overall) | effect on mitochondrial function (MitoSOX) compared with Metformin (Hepa1-6 cell line [1]; lower dose range (physiological doses of Metformin), FIG. 1B) | effect on mitochondrial function (ATP levels) compared with metformin (Hepa1-6 cell line [2]; FIG. 1 legend, overall) | effect on mitochondrial function (ATP levels) compared with metformin (Hepa1-6 cell line [2]; lower dose range (physiological doses of Metformin), FIG. 1A)
1 | CC[C@H]1/C=C/C=C/C[C@@H](C)[C@H](O)[C@@](C)(O)C(=O)[C@@H](C)[C@H](O)[C@@H](C)C(=O)[C@@H](C)[C@H](O)[C@@H](C)/C=C/C(=O)O[C@@H]2[C@H](C)[C@H](CC1)O[C@]1(CC[C@H](C)[C@H](C[C@@H](C)O)O1)[C@H]2C [oligomycin, reference compound] | no statistically significance | – | – | – | – | – | – | –
2 | CN(C)C(=N)N=C(N)N [Metformin, reference compound] | – | trend of slight increase of MitoSOX levels | ATP reduction | without cytotoxic effects | – | – | – | –
3 | O=Cc1ccc(CO)o1 [5-HMF, 5-Hydroxymethylfurfural] | – | trend of slight increase of MitoSOX levels | ATP reduction | without cytotoxic effects | comparable to that of metformin | milder than that of Metformin | comparable to that of metformin | milder than that of Metformin
